US20260355196A1, “INHIBITORS AND DEGRADERS OF PIP4K PROTEIN” (Larkspur Biosciences, Inc., priority 2023, published 2026)
Like-named read-outs stand apart in the source and are kept apart here.

Biological target: T1, PIP4K2C (Homo sapiens, UniProt Q8TBX8)
T1 sequence (Q8TBX8 1-421): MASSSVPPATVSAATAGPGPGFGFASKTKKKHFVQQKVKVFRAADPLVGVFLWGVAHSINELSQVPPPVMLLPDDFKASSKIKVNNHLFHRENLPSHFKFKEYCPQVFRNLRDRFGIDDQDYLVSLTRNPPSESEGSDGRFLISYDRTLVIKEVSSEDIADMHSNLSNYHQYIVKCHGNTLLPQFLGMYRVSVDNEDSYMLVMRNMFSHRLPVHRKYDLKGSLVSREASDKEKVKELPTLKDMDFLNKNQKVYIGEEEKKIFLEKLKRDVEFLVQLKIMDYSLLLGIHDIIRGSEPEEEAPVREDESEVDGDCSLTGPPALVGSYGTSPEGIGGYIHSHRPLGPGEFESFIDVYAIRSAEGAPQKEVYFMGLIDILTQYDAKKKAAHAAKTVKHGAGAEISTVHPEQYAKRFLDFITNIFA
Assay: HiBiT PIP4K2C degradation assay in MOLT-4 cells (endogenous PIP4K2C C-terminally tagged with HiBiT)
Type: cell-based
Design: untagged in primary human PBMCs and monocyte-derived dendritic cells
Conditions: MOLT-4, top concentration 10 micromolar
How it was run: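 DC50 derived by Hill fit of luminescence from Nano-Glo HiBiT lytic detection. Cells were HiBiT knock-in MOLT-4 (C-terminal tag on endogenous PIP4K2C), exposed 6 h or 24 h at 37 C to compound, top concentration 10 micromolar, 3-fold steps, 10 points, duplicates.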

[1] = 24 hours incubation, read-out: HiBIT-degradation MOLT4 PIP4k2C 24 hours DC50
[2] = 6 hours of incubation time, rather than 24 hours, read-out: HiBIT-degradation MOLT4 PIP4k2C DC50 (6 hours, marked *)

Compound | DC50 [1] [nM] | DC50 [2] [nM]
O=C1CCC(n2c(=O)oc3cc(C4CCN(CC5CCN(C(=O)CN6CCC(Nc7ncc(F)c(-c8cccc(-n9ccccc9=O)c8)n7)CC6=O)CC5)CC4)ccc32)C(=O)N1 (centres unmarked) [Compound 367, 3-(6-(1-((1-(2-(4-((5-fluoro-4-(3-(2-oxopyridin-1(2H)-yl)phenyl)pyrimidin-2-yl)amino)-2-oxopiperidin-1-yl)acetyl)piperidin-4-yl)methyl)piperidin-4-yl)-2-oxobenzo[d]oxazol-3 (2H)-yl)piperidine-2,6-dione] | < 500 | 
O=C1CCC(n2c(=O)oc3cc(C4CCN(CCC5CCN(C(=O)[C@H]6CC[C@H](Nc7ncc(F)c(-c8cccc(-c9ccc[nH]c9=O)c8)n7)CC6)CC5)CC4)ccc32)C(=O)N1 (stereo partly drawn) [Compound 368, 3-(6-(1-(2-(1-(trans-4-((5-fluoro-4-(3-(2-oxo-1,2-dihydropyridin-3-yl)phenyl)pyrimidin-2-yl)amino)cyclohexane-1-carbonyl)piperidin-4-yl)ethyl)piperidin-4-yl)-2-oxobenzo[d]oxazol-3 (2H)-yl)piperidine-2,6-dione] | < 500 | 
O=C1CCC(n2c(=O)oc3cc(C4CCN(CC5CCN(CC(=O)N[C@H]6CC[C@H](Nc7ncc(Cl)c(-c8cccc(-n9ccccc9=O)c8)n7)CC6)CC5)CC4)ccc32)C(=O)N1 (stereo partly drawn) [Compound 369, trans-N-(4-((5-chloro-4-(3-(2-oxopyridin-1(2H)-yl)phenyl)pyrimidin-2-yl)amino)cyclohexyl)-2-(4-((4-(3-(2,6-dioxopiperidin-3-yl)-2-oxo-2,3-dihydrobenzo[d]oxazol-6-yl)piperidin-1-yl)methyl)piperidin-1-yl)acetamide] | < 500 | 
CC(C(=O)N1CCC(Nc2ncc(F)c(-c3cccc(-n4ccccc4=O)c3)n2)CC1)N1CCC(CN2CCC(c3ccc4c(c3)oc(=O)n4C3CCC(=O)NC3=O)CC2)CC1 (centres unmarked) [Compound 370, 3-(6-(1-((1-(1-(4-((5-fluoro-4-(3-(2-oxopyridin-1(2H)-yl)phenyl)pyrimidin-2-yl)amino)piperidin-1-yl)-1-oxopropan-2-yl)piperidin-4-yl)methyl)piperidin-4-yl)-2-oxobenzo[d]oxazol-3 (2H)-yl)piperidine-2,6-dione] | < 500 | 
O=C1CCC(n2c(=O)oc3cc(C4CCN(CC5CCN(CC(=O)N6CCC(Nc7ncc(F)c(-c8cccc(N9CCCOC9=O)c8)n7)CC6)CC5)CC4)ccc32)C(=O)N1 (centres unmarked) [Compound 371, 3-(6-(1-((1-(2-(4-((5-fluoro-4-(3-(2-oxo-1,3-oxazinan-3-yl)phenyl)pyrimidin-2-yl)amino)piperidin-1-yl)-2-oxoethyl)piperidin-4-yl)methyl)piperidin-4-yl)-2-oxobenzo[d]oxazol-3 (2H)-yl)piperidine-2,6-dione] | < 500 | 
O=C1CCC(n2c(=O)oc3cc(C4CCN(CC5CCN(CC(=O)N6CCC(Nc7ncc(F)c(-c8cccc(N9CCOC9=O)c8)n7)CC6)CC5)CC4)ccc32)C(=O)N1 (centres unmarked) [Compound 372, 3-(6-(1-((1-(2-(4-((5-fluoro-4-(3-(2-oxooxazolidin-3-yl)phenyl)pyrimidin-2-yl)amino)piperidin-1-yl)-2-oxoethyl)piperidin-4-yl)methyl)piperidin-4-yl)-2-oxobenzo[d]oxazol-3 (2H)-yl)piperidine-2,6-dione] | < 500 | 
O=C1CCC(n2c(=O)oc3cc(C4CCN(CC5CCN(CC(=O)N6CCC(Nc7ncc(Cl)c(-c8cccc(-n9ccccc9=O)c8)n7)CC6)CC5)CC4)ccc32)C(=O)N1 (centres unmarked) [Compound 373, 3-(6-(1-((1-(2-(4-((5-chloro-4-(3-(2-oxopyridin-1(2H)-yl)phenyl)pyrimidin-2-yl)amino)piperidin-1-yl)-2-oxoethyl)piperidin-4-yl)methyl)piperidin-4-yl)-2-oxobenzo[d]oxazol-3 (2H)-yl)piperidine-2,6-dione] | > 5000 | 
O=C1CCC(Nc2ccc(N3CCN(CC4CCN(C(=O)[C@H]5CC[C@H](Nc6ncc(F)c(-c7cccc(-n8ccccc8=O)c7)n6)CC5)CC4)CC3)c(F)c2)C(=O)N1 (stereo partly drawn) [Compound 374, trans-3-((3-fluoro-4-(4-((1-(4-((5-fluoro-4-(3-(2-oxopyridin-1(2H)-yl)phenyl)pyrimidin-2-yl)amino)cyclohexane-1-carbonyl)piperidin-4-yl)methyl)piperazin-1-yl)phenyl)amino)piperidine-2,6-dione] | < 500 | 
O=C1CCC(Nc2ccc(N3CCN(CC4CCN(C(=O)[C@H]5CC[C@H](Nc6ncc(F)c(-c7cccc(-c8ccc[nH]c8=O)c7)n6)CC5)CC4)CC3)c(F)c2)C(=O)N1 (stereo partly drawn) [Compound 376, trans-3-((3-fluoro-4-(4-((1-(4-((5-fluoro-4-(3-(2-oxo-1,2-dihydropyridin-3-yl)phenyl)pyrimidin-2-yl)amino)cyclohexane-1-carbonyl)piperidin-4-yl)methyl)piperazin-1-yl)phenyl)amino)piperidine-2,6-dione] | < 500 | 
O=C1CCC(Nc2ccc(N3CCC(N4CC5(CC(OC(=O)N[C@H]6CC[C@H](Nc7ncc(F)c(-c8cccc(-n9ccccc9=O)c8)n7)CC6)C5)C4)CC3)c(F)c2)C(=O)N1 (stereo partly drawn) [Compound 377, trans-2-(1-(4-((2,6-dioxopiperidin-3-yl)amino)-2-fluorophenyl)piperidin-4-yl)-2-azaspiro[3.3]heptan-6-yl (4-((5-fluoro-4-(3-(2-oxopyridin-1(2H)-yl)phenyl)pyrimidin-2-yl)amino)cyclohexyl)carbamate] | < 500 | 
O=C1CCC(n2c(=O)oc3cc(N4CCC(CN5CCN(CC(=O)N6CCC(Nc7ncc(F)c(-c8cccc(-n9ccccc9=O)c8)n7)CC6)CC5)CC4)ccc32)C(=O)N1 (centres unmarked) [Compound 378, 3-(6-(4-((4-(2-(4-((5-fluoro-4-(3-(2-oxopyridin-1(2H)-yl)phenyl)pyrimidin-2-yl)amino)piperidin-1-yl)-2-oxoethyl)piperazin-1-yl)methyl)piperidin-1-yl)-2-oxobenzo[d]oxazol-3 (2H)-yl)piperidine-2,6-dione] | < 500 | 
O=C1CCC(n2c(=O)oc3cc(C4CCN(CC5CCN(CC(=O)N6CCC(Nc7ncc(F)c(-c8cccc(-c9ccc[nH]c9=O)c8)n7)CC6)CC5)CC4)ccc32)C(=O)N1 (centres unmarked) [Compound 379, 3-[6-[1-[[1-[2-[4-[[5-fluoro-4-[3-(2-oxo-1H-pyridin-3-yl)phenyl]pyrimidin-2-yl]amino]-1-piperidyl]-2-oxo-ethyl]-4-piperidyl]methyl]-4-piperidyl]-2-oxo-1,3-benzoxazol-3-yl]piperidine-2,6-dione] | < 500 | 
O=C1CCC(n2c(=O)oc3cc(N4CCC(CN5CCC(O)(CC(=O)N6CCC(Nc7ncc(F)c(-c8cccc(-n9ccccc9=O)c8)n7)CC6)CC5)CC4)ccc32)C(=O)N1 (centres unmarked) [Compound 380, 3-(6-(4-((4-(2-(4-((5-fluoro-4-(3-(2-oxopyridin-1(2H)-yl)phenyl)pyrimidin-2-yl)amino)piperidin-1-yl)-2-oxoethyl)-4-hydroxypiperidin-1-yl)methyl)piperidin-1-yl)-2-oxobenzo[d]oxazol-3 (2H)-yl)piperidine-2,6-dione] | < 500 | 
O=C1CCC(Nc2ccc(N3CCN([C@H]4CC[C@H](NC(=O)[C@H]5CC[C@H](Nc6ncc(F)c(-c7cccc(-n8ccccc8=O)c7)n6)CC5)CC4)CC3)c(F)c2)C(=O)N1 (stereo partly drawn) [Compound 381, trans-(1r,4R)—N-((1r,4R)-4-(4-(4-((2,6-dioxopiperidin-3-yl)amino)-2-fluorophenyl)piperazin-1-yl)cyclohexyl)-4-((5-fluoro-4-(3-(2-oxopyridin-1(2H)-yl)phenyl)pyrimidin-2-yl)amino)cyclohexane-1-carboxamide] |  | < 500
O=C1CCC(Nc2ccc(N3CCN([C@H]4CC[C@H](NC(=O)[C@H]5CC[C@H](Nc6ncc(F)c(-c7cccc(-c8ccc[nH]c8=O)c7)n6)CC5)CC4)CC3)c(F)c2)C(=O)N1 (stereo partly drawn) [Compound 382, trans-N-(trans-4-(4-(4-((2,6-dioxopiperidin-3-yl)amino)-2-fluorophenyl)piperazin-1-yl)cyclohexyl)-4-((5-fluoro-4-(3-(2-oxo-1,2-dihydropyridin-3-yl)phenyl)pyrimidin-2-yl)amino)cyclohexane-1-carboxamide] |  | < 500
Cn1nc(C2CCC(=O)NC2=O)c2ccc(N3CCN([C@H]4CC[C@H](NC(=O)[C@H]5CC[C@H](Nc6ncc(F)c(-c7cccc(-n8ccccc8=O)c7)n6)CC5)CC4)CC3)cc21 (stereo partly drawn) [Compound 383, trans-N-(trans-4-(4-(3-(2,6-dioxopiperidin-3-yl)-1-methyl-1H-indazol-6-yl)piperazin-1-yl)cyclohexyl)-4-((5-fluoro-4-(3-(2-oxopyridin-1(2H)-yl)phenyl)pyrimidin-2-yl)amino)cyclohexane-1-carboxamide] |  | < 500
O=C1CCC(Nc2ccc(C3CCN(CC4CCN(C(=O)[C@H]5CC[C@H](Nc6ncc(F)c(-c7cccc(-c8ccc[nH]c8=O)c7)n6)CC5)CC4)CC3)c(F)c2)C(=O)N1 (stereo partly drawn) [Compound 384, trans-3-((3-fluoro-4-(1-((1-(4-((5-fluoro-4-(3-(2-oxo-1,2-dihydropyridin-3-yl)phenyl)pyrimidin-2-yl)amino)cyclohexane-1-carbonyl)piperidin-4-yl)methyl)piperidin-4-yl)phenyl)amino)piperidine-2,6-dione] |  | < 500
